# Laboratory results from patent US20030199581A1, “Boswellin compositions enhanced with 3-beta-acetyl-11-keto-beta-boswellic acid ("AKBA") industrial manufacture and uses” (priority 2002, published 2003).
# Read-outs that look alike come from different tables or passages of the source.
# What was measured:
# [1] = tested on: CEM (lymphoblastic leukemia); assay: 3-day MTT assay, CEM cells; format: cell-based, human; details: 195 ng/ml phytochemical alone
# Description: (§1) Biological activities of the materials produced as described in Examples 1 to 5 were determined using cultured cells. The IC50s of Boswellin (“BA1”), AKBA enriched peracetylated boswellin (“BA2”) and AKBA enriched boswellin (“BA3”) in various human and murine prostate, leukemia, melanoma, lung and breast cancer cell lines were determined. The IC50s were determined using a standard MTT assay using CEM (lymphoblastic leukemia), Du 145 (prostate cancer), PC-3 (prostate cancer), LNCaP (prostate cancer), Sk-MEL2 (human melanoma), P388D1 (murine leukemia), K562 (human mycloid leukemia), A549 (human lung cancer), MCF-7 (human breast cancer), B16F (murine melanoma) cancer cell lines (Table 2).
# (§2) DU145, PC-3 and CEM cells in culture we studied to determine whether other natural products have synergistic effects with AKBA enriched boswellin. Methods for culturing the cells are described above in Example 6. To different samples of cells, we added AKBA enriched boswellin in concentrations from 0 to 120 μg/ml, resveratrol in concentrations from 0 to 3125 ng/ml, baicalin in concentrations from 0 to 3125 ng/ml and licochalcone A in concentrations from 0 to 800 μg/ml. In analogous concentrations combinations of AKBA enriched boswellin and resveratrol, baicalin and licochalcone A were studied. Cell survival was measured using the MTT assay described above.
# DU145 (prostate cancer) = assay: 3-day MTT assay, DU145 cells; format: cell-based, human; details: DU145, 195 ng/ml phytochemical alone
# Description: as §1, §2
# LNCaP cells = assay: Growth inhibition by cell counting, LNCaP cells; format: cell-based; details: Homo sapiens, 100 μg/ml, read-out: growth inhibition as compared to controls
# Description: DU145 and LNCaP cells were obtained from ATCC. The cells were grown in Eagle's MEM supplemented with 1 mM sodium pyruvate, 0.1 mM glutamine, 1.5 g/l sodium bicarbonate, and 10% fetal bovine serum. A confluent plate of cells contained approximately 2×10^6 DU145cells and 10^6 LNCaP cells.
# The test drug dissolved in DMSO at a concentration of 100 mg/ml was added to 6 test plates and to control plates. Two control and two drug plates each were harvested with addition of 1 ml/plate of trypsin-EDTA at 24, 48, and 72 hrs and counted by […]. The trypsinized plates were incubated for 3 min at 37° C., and 5 ml DMEM was added to each plate. Cells were collected in 15 ml tubes, and 2 ml of each cell suspension was added to 20 ml Isoton and counted.
# PC-3 (prostate cancer) = assay: 3-day MTT assay, PC-3 cells; format: cell-based, human
# Description: as §2, with “The IC50s were determined using a standard MTT assay using CEM (lymphoblastic leukemia), Du 145 (prostate cancer), PC-3 (prostate cancer), LNCaP (prostate cancer), Sk-MEL2 (human melanoma), P388D1 (murine leukemia), K562 (human mycloid leukemia), A549 (human lung cancer), MCF-7 (human breast cancer), B16F (murine melanoma) cancer cell lines (Table 2). […] DU145,” for “DU145,”
structure (smiles),measurement,setting,value
Oc1ccc(C=Cc2cc(O)cc(O)c2)cc1 [resveratrol],% cell survival (conc. phytochemical),[1],85 (195 ng/ml resveratrol) %
same,% cell survival (conc. phytochemical),DU145 (prostate cancer),89 (195 ng/ml resveratrol) %
O=c1c(-c2ccc(O)cc2)coc2cc(O)cc(O)c12 [Genistein],inhibition at 100 µg/mL,LNCaP cells; 24 h,32%
same,inhibition at 100 µg/mL,LNCaP cells; 48 h,49.4%
same,inhibition at 100 µg/mL,LNCaP cells; 72 h,60.8%
O=C(O)[C@H]1O[C@@H](Oc2cc3oc(-c4ccccc4)cc(=O)c3c(O)c2O)[C@H](O)[C@@H](O)[C@@H]1O [baicalin],% cell survival (conc. phytochemical),[1],85 (195 ng/ml baicalin) %
same,% cell survival (conc. phytochemical),DU145 (prostate cancer),78 (195 ng/ml baicalin) %
same,% cell survival (conc. phytochemical),"PC-3 (prostate cancer); PC-3, 12 ng/ml phytochemical alone",93 (12 ng/ml baicalin) %
C=CC(C)(C)c1cc(/C=C/C(=O)c2ccc(O)cc2)c(OC)cc1O [licochalcone A],% cell survival (conc. phytochemical),"PC-3 (prostate cancer); PC-3, 3.1 μg/ml phytochemical alone",98 (3.1 μg/ml licochalcone A) %
